From PubChem BioAssay AID493142 (Sanford-Burnham Center for Chemical Genomics, 2011)
Several values for one entry are separate records, joined by “and”; a condition that tells them apart may be missing. Equal entries are not always repeated. Activity calls are given as the source filed them.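 How the source made its calls: active means mean IC50 below 100 µM; inactive means the rest.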

These compounds were tested against Intestinal alkaline phosphatase (Alpi) [Mus musculus] (assay: mouse IAP inhibition by analogs, SAR follow-up, selectivity assay for human IAP inhibitor project, biochemical, ortholog specificity, luminescence (AID 493142)). Conditions: Purified mouse IAP, CDP-Star luminescence, 30 min.

IC50, inactive:
S=C(NCCC(c1ccccc1)c1ccccc1)Nc1ccc(Cl)cc1Cl > 100 µM
COC(=O)/C=C1\SC(N=Nc2c(O)[nH]c3ccccc23)=NC1=O > 100 µM
COc1ccc(-c2csc(Nc3cccc4ccccc34)n2)cc1F > 100 µM
Cc1ccc(C)c(Nc2nc(-c3ccc(O)cc3O)cs2)c1 > 100 µM
Cc1cccc(Nc2nc(-c3ccc(O)c(C(N)=O)c3)cs2)c1 > 100 µM
Cc1ccc(-c2ccc(/C=N/N=C3\NC(=O)C(CC(=O)O)S3)o2)c([N+](=O)[O-])c1 (stereo unspecified) > 100 µM
CC(=NNC(=S)Nc1ccccc1)c1ccc2c(c1)OCO2 > 100 µM
COc1cc(C=NN=C2SC(CC(=O)O)C(=O)N2c2ccc(O)cc2)ccc1O (stereo unspecified) > 100 µM
CCOc1cc(C=N/N=C2/NC(=O)C(CC(=O)O)S2)ccc1OCc1ccccc1Cl (stereo unspecified) > 100 µM
N#CCCn1cc(/C=N/N=C2/NC(=O)C(CC(=O)O)S2)c(-c2ccc(F)cc2)n1 (stereo unspecified) > 100 µM
COC(=O)/C=C1/S/C(=N/NC(=O)c2ccc(Cl)cc2Cl)NC1=O > 100 µM
Cc1ccc(Nc2nc(-c3ccc(O)cc3O)cs2)cc1C > 100 µM
Cc1cc(C)cc(Nc2nc(-c3ccc(O)cc3O)cs2)c1 > 100 µM
O=S(=O)(Nc1ncccn1)c1ccc(NC(=S)NCCC(c2ccccc2)c2ccccc2)cc1 > 100 µM
COc1ccc(NC(=S)NCCC(c2ccccc2)c2ccccc2)cc1 > 100 µM
COc1cc(C(=O)NNC(=S)Nc2ccc(S(N)(=O)=O)cc2)cc(OC)c1OC > 100 µM
O=C(O)CC1S/C(=N/N=C/c2ccco2)NC1=O (stereo unspecified) > 100 µM
COc1cc(/C=N/N=C2\NC(=O)C(CC(=O)O)S2)cc(OC)c1OC (stereo unspecified) > 100 µM
Cc1cccc(NC(=S)NN=Cc2ccc3c(c2)OCO3)c1 > 100 µM
COc1cc(C=NNC(=S)Nc2cccc(S(=O)(=O)N(C)C)c2)cc(OC)c1O > 100 µM
CCOc1cc(/C=N/N=C2\NC(=O)C(CC(=O)O)S2)ccc1O (stereo unspecified) > 100 µM
COC(=O)/C=C1/S/C(=N/N=Cc2ccc(N(C)C)cc2)NC1=O > 100 µM
COC(=O)/C=C1\S/C(=N/N=C/c2ccc(Cl)cc2)NC1=O > 100 µM
COC(=O)/C=C1\S/C(=N/N=C/CC(=O)OC)NC1=O > 100 µM
COc1ccc(C=NN=C2SC(CC(=O)O)C(=O)N2c2ccc(O)cc2)cc1 (stereo unspecified) > 100 µM
COC(=O)/C=C1/S/C(=N/NC(=O)c2ccccc2C)NC1=O > 100 µM
COC(=O)/C=C1/S/C(=N/NC(=O)c2ccc(OC)cc2)NC1=O > 100 µM
Cc1ccc(Nc2nc(-c3ccc(O)c(C(N)=O)c3)cs2)cc1 > 100 µM
COc1cc(C=NNC(=S)Nc2cccc(S(=O)(=O)N(C)C)c2)ccc1O > 100 µM
COc1cc([N+](=O)[O-])ccc1NC(=S)NCCC(c1ccccc1)c1ccccc1 > 100 µM
COc1cc(/C=N/N=C2/SCC(=O)N2c2ccc(O)cc2)ccc1O > 100 µM
CCOc1cc(C=NNC(=S)NC2CCCCC2)ccc1O > 100 µM
Cc1ccc(Nc2nc(-c3ccc(O)cc3O)cs2)cc1F > 100 µM
COC(=O)C/C=N/N=C1\NC(=O)/C(=C/C(=O)O)S1 > 100 µM
COc1ccc(/C=N/N=C2/NC(=O)C(CC(=O)O)S2)cc1OC (stereo unspecified) > 100 µM
CC(C)(C)c1ccc(/C=N/N=C2\NC(=O)C(CC(=O)O)S2)cc1 (stereo unspecified) > 100 µM
COC(=O)/C=C1/S/C(=N/NC(=O)c2ccccc2)NC1=O > 100 µM
CCN(CC)S(=O)(=O)c1ccc(-c2csc(=Nc3cccc4ccccc34)n2C)cc1 > 100 µM
Cc1ccc(Nc2nc(-c3ccc(O)cc3O)cs2)cc1 > 100 µM
COc1ccc(/C=N/N=C2\NC(=O)C(CC(=O)O)S2)c(OC)c1 (stereo unspecified) > 100 µM
Cc1ccc2sc(NNC(=O)c3ccc4c(c3)OCCO4)nc2c1C > 100 µM
COc1cc(C=NNC(=S)Nc2cccc(C(=O)O)c2)ccc1O > 100 µM
COc1ccc(C=NNC(=S)Nc2ccccc2[N+](=O)[O-])cc1O > 100 µM
O=[N+]([O-])c1ccc(NC(=S)NCCC(c2ccccc2)c2ccccc2)cc1 > 100 µM
COc1cccc(Nc2nc(-c3ccc(O)cc3)cs2)c1 > 100 µM
FC(F)(F)c1cccc(NC(=S)NCCC(c2ccccc2)c2ccccc2)c1 > 100 µM
Oc1ccc(-c2csc(Nc3ccccc3)n2)c(O)c1 > 100 µM
COc1ccc(-c2csc(Nc3cccc4ccccc34)n2)cc1 > 100 µM
COc1ccc(C=Nn2c(=S)n(C)c3ccccc32)cc1OC > 100 µM
Cn1c(=S)n(N=Cc2ccc3c(c2)OCO3)c2ccccc21 > 100 µM
Cc1cc(=O)oc2cc(NC(=S)NCCC(c3ccccc3)c3ccccc3)ccc12 > 100 µM
COC(=O)/C=C1/S/C(=N/NC(=O)c2ccccc2OC)NC1=O > 100 µM

IC50, active:
Cc1ccc(Cl)cc1Nc1nc(-c2ccc(O)c(O)c2)cs1 3.85 µM
O=[N+]([O-])c1ccccc1NC(=S)NN=Cc1ccc(O)c(O)c1 6.64 µM
CCc1ccccc1Nc1nc(-c2ccc(O)c(O)c2)cs1 5.47 µM and 4.15 µM
O=[N+]([O-])c1ccccc1NC(=S)N/N=C/c1ccc(O)c(O)c1O 22.2 µM
CCOc1ccc(Nc2nc(-c3ccc(O)c(O)c3)cs2)cc1 6.98 µM
Cc1c(Cl)cccc1Nc1nc(-c2ccc(O)c(O)c2)cs1 4.43 µM and 12 µM
O=S(=O)(c1ccc(NC(=S)N/N=C/c2ccc(O)c(O)c2)cc1)N1CCOCC1 1.02 µM
Cc1cccc(C)c1NC(=S)N/N=C/c1ccc(O)c(O)c1O 58.3 µM
Oc1ccc(-c2csc(Nc3ccc(F)cc3)n2)cc1O 5.59 µM
Oc1ccc(Nc2nc(-c3ccc(O)c(O)c3)cs2)cc1 1.4 µM
Cc1ccc(Nc2nc(-c3ccc(O)c(O)c3)cs2)cc1F 9.66 µM
CN(C)S(=O)(=O)c1cccc(NC(=S)NN=Cc2ccc(O)c(O)c2O)c1 27.6 µM
COc1cc([N+](=O)[O-])ccc1NC(=S)NNC(=O)c1ccc2c(c1)OCO2 95.4 µM
Oc1ccc(-c2csc(Nc3cccc4ccccc34)n2)cc1O 2.72 µM and 5.26 µM
COc1ccc(C(=O)NNC(=S)NC2CCCCC2)cc1OC 88.1 µM
Cc1cccc(Nc2nc(-c3ccc(O)c(O)c3)cs2)c1 7.77 µM
Cc1ccc2nc(NNC(=O)c3ccc4c(c3)OCCO4)sc2c1 57.7 µM
Cc1cccc(NC(=S)NNC(=O)c2ccc3c(c2)OCO3)c1 58.5 µM
NS(=O)(=O)c1ccc(Nc2nc(-c3ccc(O)c(O)c3)cs2)cc1 2.11 µM
COc1ccc(Cl)cc1Nc1nc(-c2ccc(O)c(O)c2)cs1 5.23 µM and 4.64 µM
Cc1cccc2sc(NNC(=O)c3ccc4c(c3)OCCO4)nc12 76 µM
Cc1ccc(Nc2nc(-c3ccc(O)c(O)c3)cs2)cc1 6.64 µM
NS(=O)(=O)c1ccc(Nc2nc(-c3ccc(O)cc3O)cs2)cc1 49 µM
O=S(=O)(c1ccc(NC(=S)N/N=C/c2ccc(O)c(O)c2O)cc1)N1CCOCC1 80.8 µM
